Experimental findings from patent US7208169B2, “Biphenyl carboxamides” (priority 2002, dated 2007) are described below.

Molecules are shown by their SMILES. Like-named read-outs stand apart in the source and are kept apart here.

Data set [1] can be described thus: logP determination by HPLC on reversed-phase column (EEC Directive 79/831 Annex V.A8). The format is physicochemical. To be noted: pH 2.3, C18, 43° C., 0.1% aqueous phosphoric acid/acetonitrile, read-out: logP (pH2.3). As for the experimental part: The logP values given in the Preparation Examples were determined in accordance with EEC Directive 79/831 Annex V.A8 by HPLC (High Performance Liquid Chromatography) using a reversed-phase column (C 18). Temperature: 43° C.
Mobile phases for the determination in the acidic range: 0.1% aqueous phosphoric acid, acetonitrile; linear gradient from 10% acetonitrile to 90% acetonitrile.
Calibration was carried out using unbranched alkan-2-ones (having 3 to 16 carbon atoms) with known logP values (determination of the logP values by the retention times using linear interpolation between two successive alkanones).

Data set [2] concerns Venturia inaequalis. Nature of the data set: Venturia test (apple)/protective. The class given is in vivo. To be noted: application rate 100 g/ha, protective, evaluation 10 days after inoculation. On the procedure: Venturia Test (Apple)/Protective
(§1) • 24.5 parts by weight of acetone • 24.5 parts by weight of dimethylacetamide Emulsifier: • 1.0 part by weight of alkylaryl polyglycol ether
(§2) To produce a suitable preparation of active compound, 1 part by weight of active compound is mixed with the stated amounts of solvents and emulsifier, and the concentrate is diluted with water to the desired concentration.
To test for protective activity, young plants are sprayed with the preparation of active compound at the stated application rate. After the spray coating has dried on, the plants are inoculated with an aqueous conidia suspension of the apple scab pathogen Venturia inaequalis and then remain in an incubation cabin at about 20° C. in 100% relative atmospheric humidity for 1 day.
The plants are then placed in a greenhouse at about 21° C. and a relative atmospheric humidity of about 90%.
(§3) Evaluation is carried out 10 days after the inoculation. 0% means an efficacy which corresponds to that of the control, whereas an efficacy of 100% means that no infection is observed.

Data set [3] has as its system Sphaerotheca fuliginea. Put plainly: Sphaerotheca test (cucumber)/protective. The class given is in vivo. The settings on record: Podosphaera fuliginea, 168 h, application rate 100 g/ha, protective, evaluation 7 days after inoculation, read-out: Efficacy in %. On the procedure: Sphaerotheca Test (Cucumber)/Protective
as §1, §2
To test for protective activity, young plants are sprayed with the preparation of active compound at the stated application rate. After the spray coating has dried on, the plants are inoculated with an aqueous spore suspension of Sphaerotheca fuliginea. The plants are then placed in a greenhouse at about 23° C. and a relative atmospheric humidity of about 70%.
(§4) Evaluation is carried out 7 days after the inoculation. 0% means an efficacy which corresponds to that of the control, whereas an efficacy of 100% means that no infection is observed.

For data set [4], the system named is Coriolus versicolor. Nature of the data set: Inhibitory test using a giant colony of Basidiomycetes. The class given is cell-based. To be noted: Trametes versicolor; 6 ppm active compound in nutrient agar; 26° C.; growth of fungal threads. As for the experimental part:
Inhibitory Test Using a Giant Colony of Basidiomycetes Mycelium pieces were punched out of a giant colony of the Basidiomycetes species Coriolus versicolor and incubated at 26° C. on a nutrient agar medium containing malt extract peptone. The inhibition of the growth of the fungal threads on active-compound-containing nutrient media was compared to the longitudinal growth on nutrient media without added active compound and rated as inhibition in percent. In this test, for example, the following compounds according to the invention of the Preparation Examples show good activity: […]

Data set [5] relates to Podosphaera leucotricha. Put plainly: Podosphaera test (apple)/protective. The class given is in vivo. To be noted: application rate 100 g/ha, protective, evaluation 10 days after inoculation. As for the experimental part: Podosphaera Test (Apple)/Protective
as §1, §2
To test for protective activity, young plants are sprayed with the preparation of active compound at the stated application rate. After the spray coating has dried on, the plants are inoculated with an aqueous spore suspension of the apple mildew pathogen Podosphaera leucotricha. The plants are then placed in a greenhouse at about 23° C. and a relative atmospheric humidity of about 70%.
as §3

The subject of data set [6] is Alternaria solani. Put plainly: Alternaria test (tomato)/protective. The format is in vivo. To be noted: application rate 750 g/ha, protective, evaluation 7 days after inoculation. On the procedure: Alternaria Test (Tomato)/Protective
• 49 parts by weight of N,N-dimethylformamide Emulsifier: • 1 part by weight of alkylaryl polyglycol ether
(§5) To produce a suitable preparation of active compound, 1 part by weight of active compound is mixed with the stated amounts of solvent and emulsifier, and the concentrate is diluted with water to the desired concentration.
To test for protective activity, young tomato plants are sprayed with the preparation of active compound at the stated application rate. 1 day after the treatment, the plants are inoculated with a spore suspension of Alternaria solani and then remain at 100% relative humidity and at 20° C. for 24 h. The plants then remain at 96% relative atmospheric humidity and a temperature of 20° C.
as §4

Data set [7] deals with Puccinia recondita. Nature of the data set: Puccinia test (wheat)/protective. The class given is in vivo. The settings on record: application rate 500 g/ha, protective, evaluation 10 days after inoculation. As for the experimental part: Puccinia Test (Wheat)/Protective
• 25 parts by weight of N,N-dimethylacetamide Emulsifier: • 0.6 part by weight of alkylaryl polyglycol ether
as §5
To test for protective activity, young plants are sprayed with the preparation of active compound at the stated application rate. After the spray coating has dried on, the plants are sprayed with a conidia suspension of Puccinia recondita. The plants remain in an incubation cabin at 20° C. and 100% relative atmospheric humidity for 48 hours.
The plants are then placed in a greenhouse at a temperature of about 20° C. and a relative atmospheric humidity of 80% to promote the development of rust pustules.
as §3

In the case of `Cc1ccsc1C(=O)Nc1ccccc1-c1ccc2c(c1)OC(F)(F)O2` [Example 4], in data set [1] (reversed-phase C18 HPLC column), the chromatographic logP is 3.99. This compound also registered an Efficacy in % in data set [2] of 98%. Also, the pest or weed control at 100 g/ha in data set [3] amounted to 100%.
With `Cc1nn(C)c(F)c1C(=O)Nc1ccccc1-c1ccc2c(c1)OC(F)(F)O2` [Example 19], the chromatographic logP in data set [1] (reversed-phase C18 HPLC column) is 3.22. The Efficacy in % amounted to 96% in data set [2] and 100% in data set [5]. Also, the inhibition at 6 ppm in data set [4] amounted to 100%. Further, the pest or weed control at 100 g/ha in data set [3] worked out at 92%.
`Cn1cc(C(=O)Nc2ccccc2I)c(C(F)(F)F)n1` [Example (IV-1), N-(2-iodophenyl)-1-methyl-3-(trifluoromethyl)-1H-pyrazole-4-carboxamide]: the chromatographic logP in data set [1] (reversed-phase C18 HPLC column) was determined as 2.46.
As to `O=C(Nc1ccccc1-c1ccc2c(c1)OC(F)(F)C(F)(F)O2)c1ccccc1C(F)(F)F` [Example 6], the chromatographic logP in data set [1] is 5.93. Moreover, the Efficacy in % in data set [2] stood at 99%; in data set [5] it was 100%. The pest or weed control at 100 g/ha in data set [3] came to 100%.
For the compound `OB(O)c1ccc2c(c1)OC(F)(F)C(F)(F)O2` [Example (V-1), 2,2,3,3-tetrafluoro-2,3-dihydro-1,4-benzodioxin-6-yl-boronic acid], the chromatographic logP in data set [1] (reversed-phase C18 HPLC column) was 2.49.
In the case of `Cc1nc(C(F)(F)F)c(C(=O)Nc2ccccc2-c2ccc3c(c2)OC(F)(F)O3)s1` [Example 5], the chromatographic logP in data set [1] (reversed-phase C18 HPLC column) was 3.81. Besides, the Efficacy in % in data set [2] and in data set [5] was 100% in each case. For the same compound, the pest or weed control at 100 g/ha in data set [3] worked out at 100%.
On to `Cc1nc(C(F)(F)F)c(C(=O)Nc2ccccc2-c2ccc3c(c2)OC(F)(F)C(F)(F)O3)s1` [Example 10], for which, in data set [1] (reversed-phase C18 HPLC column), the chromatographic logP is 3.94. The Efficacy in % in data set [2] and in data set [5] was 100% each time. For the same compound, in data set [3], the pest or weed control at 100 g/ha stood at 100%.
As for `O=C(Nc1ccccc1-c1ccc2c(c1)OC(F)(F)O2)c1ccccc1C(F)(F)F` [Example 3], the chromatographic logP in data set [1] was 3.94. For the same compound, the pest or weed control at 100 g/ha in data set [3] came to 98%. Moreover, the Efficacy in % in data set [5] is reported as 100%; in data set [6] it was 94%.
With `Cn1cc(C(=O)Nc2ccccc2-c2ccc3c(c2)OC(F)(F)O3)c(C(F)(F)F)n1` [Example 2, N-[2-(2,2-difluoro-1,3-benzodioxol-5-yl)-phenyl]-1-methyl-3-(trifluoromethyl)-1H-pyrazol-4-carboxamide], the chromatographic logP in data set [1] (reversed-phase C18 HPLC column) is 3.37. For the same compound, the Efficacy in % in data set [2], in data set [5] and in data set [6] was 100% throughout. Further, the pest or weed control at 100 g/ha in data set [3] was determined as 100%.
Take `Cc1nn(C)c(F)c1C(=O)Nc1ccccc1-c1ccc2c(c1)OC(F)(F)C(F)(F)O2` [Example 1, 5-fluoro-1,3-dimethyl-N-[2-(2,2,3,3-tetrafluoro-2,3-dihydro-1,4-benzodioxin-6-yl)phenyl]-1H-pyrazole-4-carboxamide]: the chromatographic logP in data set [1] (reversed-phase C18 HPLC column) was determined as 3.77. For the same compound, the Efficacy in % in data set [2], in data set [7] and in data set [5] was 100% in each case. Besides, the inhibition at 6 ppm in data set [4] is 100%. The pest or weed control at 100 g/ha in data set [3] turned out to be 98%.
For `Cc1nn(C)c(F)c1C(=O)Nc1c(F)cc(F)cc1-c1ccc2c(c1)OCO2` [Example 15], the chromatographic logP in data set [1] (reversed-phase C18 HPLC column) came out at 2.34. This compound also gave an Efficacy in % in data set [6] of 95%.

As usually defined, the inhibition is the percentage by which the read-out fell short of the control. Lower therefore signals a weak effect.
